Data from patent US7514432B2, “Compounds and methods of treating cell proliferative diseases, retinopathies and arthritis” (Exonhit Therapeutics SA, priority 2003, dated 2009).

Columns and labels:
[1] = test system: HepG2; assay: Cell viability assay (MTT), HepG2; format: cell-based; settings: Homo sapiens, 10% FBS, 16-hours treatment, 1% DMSO
Method: Table 15: 16-hour cell viability assay (MTT) in the presence of 10% Fetal Bovine Serum and 1% DMSO, in HCT116, MDA-MB-231, NIH3T3, HepG2 and primary hepatocytes. 5 10^4 to 10 10^4 cells were seeded in 48-well plates in growth medium containing 10% FBS, with or without various concentrations of test compounds. Data were analyzed and IC50s were calculated from dose-reponse curves using GraphPad Prism. Results summarized in the tables are mean±SEM of 1 to 2 independent experiments.
(§1) In order to determine a compound's effect on cell viability, microculture tetrazolium assays (MTT) were performed as described by Carmichael et al. (1996) with modifications. Four human tumoral cell lines, namely HCT116 colon adenocarcinoma, H460 lung carcinoma, MCF-7 and MDA-MB-231 breast carcinoma cell lines, DLD1 colorectal adenocarcinoma, HeLa adenocarcinoma, HepG2 hepatocellular carcinoma. 3 immortalized but non tumorigenic cell lines, namely NIH3T3 mouse fibroblasts (American Type Culture Collection) and primary hepatocytes (Biopredic international), cultured according to their recommendations together with Human Microvasculature Endothelial Cell line HMEC1 (National Center for Infectious Diseases). Briefly, cells were seeded in 48-well plates 24 hours before drug addition. Cells were treated with 0 to 200 μM (11 concentrations) of compound solubilized in DMSO, adjusting the final concentration of DMSO to 1% in the well. 16 hours, and three or six days after treatment, 0.5 mg/ml MTT (Sigma) was added to the medium and cells were incubated for 1-5 hours at 37° C. before solubilization of formazan crystals in 100% DMSO. Absorbance was measured using a spectrophotometer at a wavelength of 550 nm. Data was analyzed using the GraphPad Prism software (GraphPad Software, Inc.), and IC50 (dose leading to 50% cell death) was calculated from the dose-response curves.

[2] = test system: MDA-MB-231; assay: Boyden chamber migration assay, MDA-MB-231; format: cell-based, human; settings: Homo sapiens, FBS as chemoattractant
Method: FIG. 4: Migration assays. (A) Wound healing assay in REF cells. 7.6 10^4 cells were plated on coverslips 48 hours before the experiment. The cells were pre-treated for 30 min. with the compounds, and then a scrape was done using a pipette tip. The scraped coverslips in treatment medium were put under a thermostated microscope coupled to a video camera. Movies were analyzed as described in material and methods, and velocity and total distance covered by the cells were evaluated. Bar graphs represent the mean±SEM of 2 to 4 experiments. (B) Boyden chamber migration assay in HMEC1, NIH3T3 and MDA-MB-231 cells. 5 10^4 to 7.5 10^4 Cells, resuspended in culture medium with or without FBS and with different compound concentrations, were seeded in the upper Boyden blind well on top of 8 μm pore-sized filters. The ability of the cells to migrate through the filter was assayed in the absence or presence of FBS in the lower Boyden chamber. After 16 hours incubation, the medium was removed and replaced with calcein-AM containing medium. After labeling, cells were washed with HBSS and fluorescence was read in a fluorescence plate reader. Fluorescence values were normalized against the fluorescence obtained for the 1% DMSO control. The data plotted are the means±SEM of 2 to 4 independent experiments.
An essential characteristic of malignant cells is their ability to migrate, invade host tissues and to produce metastases. In order to evaluate the capacity of one compound to affect the ability of tumoral cells to migrate, migration assays were performed using highly invasive tumoral cells MDA-MB-231, endothelial cells HMEC1 or fibroblastic cells NIH3T3. This assay was performed using Falcon HTS Fluoroblock inserts. Culture medium containing Fetal Bovine Serum (FBS; which is used as a chemoattractant) was added to the plate wells and 2 10^4 to 7.5 10^4 cells resuspended in medium without FBS and with 0.1% BSA were added to each insert well. The compound of interest was added to the medium in both the upper and the lower chambers. Plates were incubated for 16 hours at 37° C. Following incubation, the medium was removed from the upper chamber and the entire insert plate was transferred to a second 24-well plate containing 4 μg/ml Calcein-AM™ in medium containing 0.1% BSA. The plates were incubated for one hour at 37° C., rinsed with Hanks Buffered Saline (HBSS). Fluorescence data were collected using Fluoroskan Ascent FL fluorescence plate reader at an excitation wavelength (Ex) of 485 nm and emission wavelength (Em) of 517 nm. Only those labelled cells that passed through the Matrigel layer and the membrane were detected. Data were analyzed using the GraphPad Prism software and IM50s (dose at which 50% inhibition of cell migration is observed) were calculated.

[3] = test system: HeLa; assay: Cell viability assay (MTT), HeLa; format: cell-based; settings: Homo sapiens, 72 h, 10% FBS, 3-day treatment, 1% DMSO
Method: Table 14: 3-day cell viability assay (MTT) in the presence of 10% Fetal Bovine Serum and 1% DMSO, in DLD1, HCT116, MDA-MB-231, MCF7 and HeLa cells. 7.5 10^3 to 1.5 10^4 cells were seeded in 48-well plates in growth medium containing 10% FBS, with or without various concentrations of test compounds. Data were analyzed and IC50s were calculated from dose-response curves using GraphPad Prism. Results summarized in the tables are mean±SEM of 1 to 7 independent experiments.
as §1

[4] = test system: HCT116; assay: Cell viability assay (MTT), HCT116; format: cell-based, human; settings: 1% DMSO
Outline: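 Cells seeded 24 h before treatment with 0–200 μM compound (11 concentrations, 1% DMSO final) in 10% or 0.5% FBS medium; exposure 16 h, 3 or 6 days, fed every 3 days in 6-day runs. MTT 0.5 mg/ml read at 550 nm; IC50 from dose-response curves, mean±SEM.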

[5] = Homo sapiens, HCT-116, 16 h, 10% FBS, 16-hours treatment
[6] = Homo sapiens, HCT-116, 72 h, 10% FBS, 3-day treatment
[7] = Homo sapiens, HCT-116, 144 h, 0.5% FBS, 6-day treatment
[8] = Homo sapiens, HCT-116, 144 h, 10% FBS, 6-day treatment
[9] = 10% FBS, 6-day treatment, trihydrochloride

Row | Compound | IC50 [1] [µM] | IC50 ([2]; MDA-MB-231, 16 hours) [µM] | IC50 [3] [µM] | IC50 ([4]; 10% FBS, 6-day treatment, dihydrochloride) [µM] | IC50 [4, 5] [µM] | IC50 [4, 6] [µM] | IC50 [4, 7] [µM] | IC50 [4, 8] [µM] | IC50 ([2]; MDA-MB-231, 16 h) [µM] | IC50 [4, 9] [µM]
1 | Cl.Cl.O=c1cc(CN2CCOCC2)occ1OCCCCCSc1ccnc2cc(C(F)(F)F)ccc12 [EHT 1864, 5-(5-(7-(Trifluoromethyl)quinolin-4-ylthio)pentyloxy)-2-(morpholinomethyl)-4H-pyran-4-one dihydrochloride] | 60 | 5.1 ± 1.9 | 23.3 | 2.7 | 37 | 6.1 | 6.6 | < 4 | – | –
2 | Cl.Cl.Cl.O=c1cc(CN2CCNCC2)occ1OCCCCCSc1ccnc2cc(C(F)(F)F)ccc12 [EHT 8560, 5-(5-(7-(Trifluoromethyl)quinolin-4-ylthio)pentyloxy)-2-((piperazin-1-yl)methyl)-4H-pyran-4-one trihydrochloride] | 9.75 | – | 4.4 | – | – | 4 | 4.6 | < 4 | 4.5 ± 2.4 | 3.8
3 | CN1CCN(Cc2cc(=O)c(OCCCCCSc3ccnc4cc(C(F)(F)F)ccc34)co2)CC1.Cl.Cl.Cl [EHT 9241, 5-(5-(7-(Trifluoromethyl)quinolin-4-ylthio)pentyloxy)-2-((4-methylpiperazin-1-yl)methyl)-4H-pyran-4-one trihydrochloride] | 11.3 | – | 5.7 | – | 31.3 | 5.7 | 6.2 | < 4 | 2.7 ± 1 | 4
